According to patent US9765091B2, “Tetrahydropyrazolo [3,4-b] azepine derivatives and their use as allosteric modulators of metabotropic glutamate receptors” (Addex Pharma S.A., priority 2010, dated 2017):

Biological target: T1, human mGluR4 (Homo sapiens, UniProt Q14833)
T1 construct: expressed in transfected cells
Test: Fluorescent cell based Ca2+ mobilization assay (FLIPR) on HEK-293 cells expressing human mGluR4
Conditions: positive allosteric modulation, HEK-293 cells expressing hmGluR4, stimulated by EC25 glutamate; mean of at least three independent experiments in duplicate; read-out: Ca^2+ Flux* (mean EC50)
Description: mGluR4 Assay on HEK-Expressing Human mGluR4
The compounds of the present invention are positive allosteric modulators of mGluR4 receptor. Their activity was examined on recombinant human mGluR4a receptors by detecting changes in intracellular Ca^2+ concentration, using the fluorescent Ca^2+-sensitive dye Fluo4-(AM) and a Fluorometric Imaging Plate Reader (FLIPR, Molecular Devices, Sunnyvale, Calif.).
The cDNA encoding the human metabotropic glutamate receptor (hmGluR4), (accession number NM_000841.1, NCBI Nucleotide database browser), was subcloned into an expression vector containing also the hygromycin resistance gene. In parallel, the cDNA encoding a G protein allowing redirection of the activation signal to intracellular calcium flux was subcloned into a different expression vector containing also the puromycin resistance gene. Transfection of both these vectors into HEK293 cells with PolyFect reagent (Qiagen) according to supplier's protocol, and hygromycin and puromycin treatment allowed selection of antibiotic resistant cells which had integrated stably one or more copies of the plasmids. Positive cellular clones expressing hmGluR4 were identified in a functional assay measuring changes in calcium fluxes in response to glutamate or selective known mGluR4 orthosteric agonists and antagonists. HEK-293 cells expressing hmGluR4 were maintained in media containing DMEM, dialyzed Fetal Calf Serum (10%), Glutamax™ (2 mM), Penicillin (100 units/mL), Streptomycin (100 μg/mL), Geneticin (100 μg/mL) and Hygromycin-B (40 μg/mL) and puromycin (1 μg/mL) at 37° C./5% CO2.
Human mGluR4 HEK-293 cells were plated out 24 hours prior to FLIPR^384 assay in black-walled, clear-bottomed, poly-L-ornithine-coated 384-well plates at a density of 25,000 cells/well in a glutamine/glutamate free DMEM medium containing foetal bovine serum (10%), penicillin (100 units/mL) and streptomycin (100 μg/mL) at 37° C./5% CO2.
On the day of the assay, the medium was aspirated and the cells were loaded with a 3 μM solution of Fluo4-AM (LuBioScience, Lucerne, Switzerland) in 0.03% pluronic acid. After 1 hour at 37° C./5% CO2, the non incorporated dye was removed by washing cell plate with the assay buffer and the cells were left in the dark at room temperature for […] before testing. All assays were performed in a pH 7.4 buffered-solution containing 20 mM HEPES, 143 mM NaCl, 6 mM KCl, 1 mM MgSO4, 1 mM CaCl2, 0.125 mM sulfapyrazone and 0.1% glucose.
After 10 s of basal fluorescence recording, various concentrations of the compounds of the invention were added to the cells. Changes in fluorescence levels were first monitored for 180 s in order to detect any agonist activity of the compounds. Then the cells were stimulated by an EC25 glutamate concentration for an additional 110 s in order to measure enhancing activities of the compounds of the invention. EC25 glutamate concentration is the concentration giving 25% of the maximal glutamate response.
The concentration-response curves of representative compounds of the present invention were generated using the Prism GraphPad software (Graph Pad Inc, San Diego, USA). The curves were fitted to a four-parameter logistic equation: (Y=Bottom+(Top−Bottom)/(1+10^((Log EC50−X)*Hill Slope) allowing the determination of EC50 values.
The Table 4 below represents the mean EC50 obtained from at least three independent experiments of selected molecules performed in duplicate.

T1 sequence (Q14833 33-912): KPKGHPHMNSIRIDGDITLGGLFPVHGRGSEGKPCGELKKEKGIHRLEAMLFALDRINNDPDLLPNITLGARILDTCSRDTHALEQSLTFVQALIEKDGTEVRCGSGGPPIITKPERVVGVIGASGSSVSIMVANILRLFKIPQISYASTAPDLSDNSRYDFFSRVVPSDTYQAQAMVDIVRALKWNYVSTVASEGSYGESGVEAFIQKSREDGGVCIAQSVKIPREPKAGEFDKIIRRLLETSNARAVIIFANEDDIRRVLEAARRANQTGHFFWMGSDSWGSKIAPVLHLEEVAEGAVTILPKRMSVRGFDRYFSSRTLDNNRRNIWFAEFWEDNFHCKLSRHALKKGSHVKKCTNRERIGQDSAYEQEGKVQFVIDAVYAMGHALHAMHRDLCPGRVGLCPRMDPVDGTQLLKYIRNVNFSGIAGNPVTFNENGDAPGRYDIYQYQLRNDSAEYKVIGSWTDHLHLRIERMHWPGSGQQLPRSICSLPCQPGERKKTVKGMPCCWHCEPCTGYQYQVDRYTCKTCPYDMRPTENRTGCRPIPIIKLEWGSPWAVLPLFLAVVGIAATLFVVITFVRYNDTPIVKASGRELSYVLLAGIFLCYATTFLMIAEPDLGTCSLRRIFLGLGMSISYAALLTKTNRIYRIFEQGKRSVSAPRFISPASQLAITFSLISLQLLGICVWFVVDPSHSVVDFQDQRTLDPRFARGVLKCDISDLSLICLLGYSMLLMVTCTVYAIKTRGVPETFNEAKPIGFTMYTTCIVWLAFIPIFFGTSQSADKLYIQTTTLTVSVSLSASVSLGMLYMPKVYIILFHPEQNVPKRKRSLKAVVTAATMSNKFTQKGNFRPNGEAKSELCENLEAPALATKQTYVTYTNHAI

EC50	Compound
100 to 1000 nM	CN1CCc2sc(Nc3ncc(F)cn3)nc2-c2c[nH]nc21 [Compound 1-2, N-(5-Fluoropyrimidin-2-yl)-6-methyl-4,5,6,8-tetrahydropyrazolo[3,4-b]thiazolo[4,5-d]azepin-2-amine]
< 100 nM	CCN1CCc2sc(Nc3nccc(C)n3)nc2-c2c[nH]nc21 [Compound 1-3, 6-Ethyl-N-(4-methylpyrimidin-2-yl)-4,5,6,8-tetrahydropyrazolo[3,4-b]thiazolo[4,5-d]azepin-2-amine]
< 100 nM	Fc1cnc(Nc2nc3c(s2)CCN(CC2CC2)c2n[nH]cc2-3)nc1 [Compound 1-4, 6-(Cyclopropylmethyl)-N-(5-fluoropyrimidin-2-yl)-4,5,6,8-tetrahydropyrazolo[3,4-b]thiazolo[4,5-d]azepin-2-amine]
< 100 nM	CC(C)N1CCc2sc(Nc3ncc(F)cn3)nc2-c2c[nH]nc21 [Compound 1-6, N-(5-Fluoropyrimidin-2-yl)-6-isopropyl-4,5,6,8-tetrahydropyrazolo[3,4-b]thiazolo[4,5-d]azepin-2-amine]
< 100 nM	COCCN1CCc2sc(Nc3nccc(C)n3)nc2-c2c[nH]nc21 [Compound 1-7, 6-(2-Methoxyethyl)-N-(4-methylpyrimidin-2-yl)-4,5,6,8-tetrahydropyrazolo[3,4-b]thiazolo[4,5-d]azepin-2-amine]
100 to 1000 nM	Cc1nc(Nc2nc3c(s2)CCN(C)c2n[nH]cc2-3)ncc1F [Compound 1-9, N-(5-Fluoro-4-methylpyrimidin-2-yl)-6-methyl-4,5,6,8-tetrahydropyrazolo[3,4-b]thiazolo[4,5-d]azepin-2-amine]
< 100 nM	Cc1ccnc(Nc2nc3c(s2)CCN(CC2CCCO2)c2n[nH]cc2-3)n1 (stereo not drawn) [Compound 1-10, N-(4-Methylpyrimidin-2-yl)-6-((tetrahydrofuran-2-yl)methyl)-4,5,6,8-tetrahydropyrazolo[3,4-b]thiazolo[4,5-d]azepin-2-amine]
< 100 nM	COCCN1CCc2sc(Nc3ncc(F)cn3)nc2-c2c[nH]nc21 [Compound 1-12, N-(5-Fluoropyrimidin-2-yl)-6-(2-methoxyethyl)-4,5,6,8-tetrahydropyrazolo[3,4-b]thiazolo[4,5-d]azepin-2-amine]
< 100 nM	COCCN1CCc2sc(Nc3cccc(C)n3)nc2-c2c[nH]nc21 [Compound 1-13, 6-(2-Methoxyethyl)-N-(6-methylpyridin-2-yl)-4,5,6,8-tetrahydropyrazolo[3,4-b]thiazolo[4,5-d]azepin-2-amine]
< 100 nM	Cc1ccnc(Nc2nc3c(s2)CCN(Cc2ccn(C)n2)c2n[nH]cc2-3)n1 [Compound 1-16, 6-((1-Methyl-1H-pyrazol-3-yl)methyl)-N-(4-methylpyrimidin-2-yl)-4,5,6,8-tetrahydropyrazolo[3,4-b]thiazolo[4,5-d]azepin-2-amine]
100 to 1000 nM	Cc1ccnc(Nc2nc3c(s2)CCN(CC(=O)N(C)C)c2n[nH]cc2-3)n1 [Compound 1-17, N,N-Dimethyl-2-(2-(4-methylpyrimidin-2-ylamino)-4,5-dihydropyrazolo[3,4-b]thiazolo[4,5-d]azepin-6(8H)-yl)acetamide]
< 100 nM	COCCN1CCc2sc(Nc3nccc(OC)n3)nc2-c2c[nH]nc21 [Compound 1-18, 6-(2-Methoxyethyl)-N-(4-methoxypyrimidin-2-yl)-4,5,6,8-tetrahydropyrazolo[3,4-b]thiazolo[4,5-d]azepin-2-amine]
< 100 nM	COCCN1CCc2sc(Nc3nsc(C)n3)nc2-c2c[nH]nc21 [Compound 1-19, 6-(2-Methoxyethyl)-N-(5-methyl-1,2,4-thiadiazol-3-yl)-4,5,6,8-tetrahydropyrazolo[3,4-b]thiazolo[4,5-d]azepin-2-amine]
100 to 1000 nM	OCCN1CCc2sc(Nc3ncc(F)cn3)nc2-c2c[nH]nc21 [Compound 1-20, 2-(2-(5-Fluoropyrimidin-2-ylamino)-4,5-dihydropyrazolo[3,4-b]thiazolo[4,5-d]azepin-6(8H)-yl)ethanol]
< 100 nM	COCCN1CCc2sc(Nc3cccc(N)n3)nc2-c2c[nH]nc21 [Compound 1-21, N^2-(6-(2-Methoxyethyl)-4,5,6,8-tetrahydropyrazolo[3,4-b]thiazolo[4,5-d]azepin-2-yl) pyridine-2,6-diamine]
< 100 nM	Cc1cc(CN2CCc3sc(Nc4ncc(F)cn4)nc3-c3c[nH]nc32)no1 [Compound 1-22, N-(5-Fluoropyrimidin-2-yl)-6-((5-methylisoxazol-3-yl)methyl)-4,5,6,8-tetrahydropyrazolo[3,4-b]thiazolo[4,5-d]azepin-2-amine]
< 100 nM	Fc1cnc(Nc2nc3c(s2)CCN(Cc2ccccn2)c2n[nH]cc2-3)nc1 [Compound 1-26, N-(5-Fluoropyrimidin-2-yl)-6-(pyridin-2-ylmethyl)-4,5,6,8-tetrahydropyrazolo[3,4-b]thiazolo[4,5-d]azepin-2-amine]
< 100 nM	Fc1cnc(Nc2nc3c(s2)CCN(Cc2ccncc2)c2n[nH]cc2-3)nc1 [Compound 1-27, N-(5-Fluoropyrimidin-2-yl)-6-(pyridin-4-ylmethyl)-4,5,6,8-tetrahydropyrazolo[3,4-b]thiazolo[4,5-d]azepin-2-amine]
< 100 nM	CS(=O)(=O)CCN1CCc2sc(Nc3ncc(F)cn3)nc2-c2c[nH]nc21 [Compound 1-28, N-(5-Fluoropyrimidin-2-yl)-6-(2-(methylsulfonyl)ethyl)-4,5,6,8-tetrahydropyrazolo[3,4-b]thiazolo[4,5-d]azepin-2-amine]
100 to 1000 nM	Fc1cnc(Nc2nc3c(s2)CCN(CCC(F)(F)F)c2n[nH]cc2-3)nc1 [Compound 1-29, N-(5-Fluoropyrimidin-2-yl)-6-(3,3,3-trifluoropropyl)-4,5,6,8-tetrahydropyrazolo[3,4-b]thiazolo[4,5-d]azepin-2-amine]
100 to 1000 nM	Fc1cnc(Nc2nc3c(s2)CCN(CC(F)(F)F)c2[nH]ncc2-3)nc1 [Compound 1-30, N-(5-Fluoropyrimidin-2-yl)-6-(2,2,2-trifluoroethyl)-4,5,6,7-tetrahydropyrazolo[3,4-b]thiazolo[4,5-d]azepin-2-amine]
< 100 nM	Fc1cnc(Nc2nc3c(s2)CCN(C2CCOC2)c2n[nH]cc2-3)nc1 (stereo not drawn) [Compound 1-31, N-(5-Fluoropyrimidin-2-yl)-6-(tetrahydrofuran-3-yl)-4,5,6,8-tetrahydropyrazolo[3,4-b]thiazolo[4,5-d]azepin-2-amine]
1000 to 10000 nM	CNCCN1CCc2sc(Nc3ncc(F)cn3)nc2-c2c[nH]nc21 [Compound 1-32, N-(5-Fluoropyrimidin-2-yl)-6-(2-(methylamino)ethyl)-4,5,6,8-tetrahydropyrazolo[3,4-b]thiazolo[4,5-d]azepin-2-amine]
< 100 nM	COCCCN1CCc2sc(Nc3ncc(F)cn3)nc2-c2c[nH]nc21 [Compound 1-33, N-(5-Fluoropyrimidin-2-yl)-6-(3-methoxypropyl)-4,5,6,8-tetrahydropyrazolo[3,4-b]thiazolo[4,5-d]azepin-2-amine]
< 100 nM	Fc1cnc(Nc2nc3c(s2)CCN(CC2CCCC2)c2n[nH]cc2-3)nc1 [Compound 1-36, 6-(Cyclopentylmethyl)-N-(5-fluoropyrimidin-2-yl)-4,5,6,8-tetrahydropyrazolo[3,4-b]thiazolo[4,5-d]azepin-2-amine]
< 100 nM	Cc1ccnc(Nc2nc3c(s2)CCN(CC2CC2)c2n[nH]cc2-3)n1 [Compound 1-37, 6-(Cyclopropylmethyl)-N-(4-methylpyrimidin-2-yl)-4,5,6,8-tetrahydropyrazolo[3,4-b]thiazolo[4,5-d]azepin-2-amine]
< 100 nM	Fc1cnc(Nc2nc3c(s2)CCN(CC2CCCCC2)c2n[nH]cc2-3)nc1 [Compound 1-38, 6-(Cyclohexylmethyl)-N-(5-fluoropyrimidin-2-yl)-4,5,6,8-tetrahydropyrazolo[3,4-b]thiazolo[4,5-d]azepin-2-amine]
